We go through 10 compounds from patent publication US7825156B2, “Method of treating bipolar depression with a benzamide derivative” (Copharms, priority 2007, dated 2010).

The subject of one series is bipolar depression. As to the kind of experiment: Case reports: treatment of bipolar depression in patients with bipolar I or II disorder. Conditions: for depressive disorders: amisulpride 150 mg/d.
The next series relates to bipolar disorder. The experiment in a line: Earlier treatments in the case histories (manic episodes, maintenance, earlier depressive condition). Type of series: in vivo, patient. To be noted: for manic episode, treatment outcome: Case 10, bipolar I, most recent episode mixed, haloperidol and levomepromazine given together.
The test system of series [1] is bipolar I disorder relapse. Conditions: add-on treatment of bipolar I patients, cited from earlier work.
A short description of series [2]: Serum levels of concomitant drugs in the case patients.

Experimental for bipolar depression: Bipolar depressive patient is here defined as a patient with either Bipolar I Disorder, Most Recent Episode Depressed; Bipolar I Disorder, Most Recent Episode Mixed or Bipolar II Disorder (Recurrent Major Depressive Episodes With Hypomanic Episodes) (Classification 296.5×, 296.6×, and 296.89 respectively of DSM-IV).
Subject diagnosed with bipolar II disorder, recurrent major depressive episodes with hypomanic episodes). They are admitted for bipolar depression and amisulpride treatment of 200 mg/d is initiated.
Subject diagnosed with bipolar II disorder, recurrent major depressive episodes with hypomanic episodes). They are admitted for bipolar depression and amisulpride treatment of 100 mg/d is initiated.
Subject, diagnosed with bipolar disorder I, most recent episode depressed. Upon admission at the hospital a treatment with amisulpride 100 mg/g was initiated.
Subject diagnosed with bipolar I disorder, most recent episode mixed. The patient is hospitalised for bipolar depression and treatment with amisulpride 150 mg/g initiated.
Subject, diagnosed with bipolar I disorder, most recent episode depressed, for the first time. The patient has been on lithium for about 3 years. They are compliant with their treatment and lithium serum levels remains stable around 0.7-0.9 mEq/L. They are admitted for bipolar depression with lithium serum level were 0.8 mEq/L. The day after they received an amisulpride treatment of 100 mg/d.
Subject, diagnosed with bipolar disorder I, most recent episode depressed, is hospitalized for manic state. Their illness started 4 years ago. The patient suffers bipolar disorder type I. The patient has already shown two manic episodes. At entrance, they received divalproate at a dose of 1250 mg/d. […] The patient was diagnosed with major depression. Then, a treatment with amisulpride (150 mg/d) is established.
Subject diagnosed with bipolar I disorder, most recent episode depressed. Their family informed the therapist of a dramatic decrease of their professional performance since 6 months. The patient is admitted for bipolar depression and amisulpride 250 mg/d is initiated.
Subject diagnosed with bipolar II disorder, recurrent major depressive episodes with hypomanic episodes).
Subject diagnosed with bipolar I disorder, most recent episode depressed. […] A treatment with amisulpride 150 mg/d is then initiated.
Subject diagnosed with bipolar I disorder, most recent episode mixed. […] The patient however refused to follow a long course treatment because they seemed not, according to themself and their family, present severe symptoms.
Subject diagnosed with bipolar I disorder, most recent episode depressed. […] At admission, their lithium serum level was 0.7 mEq/L and their valproate serum level was 100 mg/ml.
Subject diagnosed with bipolar I disorder, most recent episode depressed.
Subject diagnosed with bipolar I disorder, most recent episode depressed. After several manic and depressive episodes the patient seems stabilised with a combination of lithium 1600 mg/d and paroxetine 40 mg/d.
Upon admission at the hospital the lithium serum level are controlled and the treatment with paroxetine is stopped. A treatment with amisulpride 100 mg/d is established.
Experimental for bipolar disorder: At entrance, they received divalproate at a dose of 1250 mg/d. […] The patient was diagnosed with major depression. Then, a treatment with amisulpride (150 mg/d) is established.
A treatment with amisulpride 150 mg/d is then initiated.
At admission, their lithium serum level was 0.7 mEq/L and their valproate serum level was 100 mg/ml.

On to `CN(C)CCCN1c2ccccc2CCc2ccc(Cl)cc21` [clomipramine], for which the “patient's condition (anxiety, agitation, sleep disorders)” value in the series with bipolar depression (Case 8, bipolar II, clomipramine 100 mg/d, according to their family) was “deteriorated”.

With `O=C(CCCN1CCC(O)(c2ccc(Cl)cc2)CC1)c1ccc(F)cc1` [haloperidol], in the series with bipolar disorder, the “manic episode, treatment outcome” value is listed as “treated successfully”.

For `CCN1CCCC1CNC(=O)c1cc(S(=O)(=O)CC)c(N)cc1OC` (stereo not drawn) [amisulpride, 4-amino-N-[(1-ethylpyrrolidin-2-yl)methyl]-5-(ethylsulfonyl)-2-methoxybenzamide], the overall relapse rate entry in series [1] (period of amisulpride therapy, Clin Pract Epidemiol Ment Health 2006, 2:19) was “statistically significant decrease”. Moreover, the “relapse rate, manic episodes” value in series [1] (only manic episodes) is “reached statistical significance”. Further, the depressive state entry with bipolar depression (Case 1, bipolar II, amisulpride 200 mg/d, after 4 weeks) is listed as “started to markedly decrease”; in the series with bipolar depression (Case 1, bipolar II, amisulpride 200 mg/d, after 6 weeks), “disappeared completely”; with bipolar depression (Case 5, bipolar I, most recent episode depressed, on lithium, amisulpride 100 mg/d, after 3 weeks), “started to vanish progressively”; in the series with bipolar depression (Case 5, on lithium, amisulpride 100 mg/d, after 6 weeks) it was “disappeared completely”. In addition, the “manic or depressive recurrence” value is listed as “no manic or depressive recurrence” in the series on bipolar depression (Case 1, after 3 years of amisulpride 100 mg/d) and “no manic or depressive recurrence” in the series with bipolar depression (Case 5, after 3 years of treatment). The depressive condition entry in the series on bipolar depression (Case 2, bipolar II, amisulpride 100 mg/d, after 3 weeks) is “improved”; in the series with bipolar depression (Case 9, amisulpride 150 mg/d after fluoxetine, after 2 weeks), “almost disappeared”; with bipolar depression (Case 11, amisulpride 50 mg/d added, after 15 days) it was “improved”; in the series on bipolar depression (Case 12, bipolar I, most recent episode depressed, 150 mg of amisulpride, after 4 weeks), “recovery”. Besides, the relapse entry with bipolar depression (Case 2, after 4 years of amisulpride 100 mg/d) is “any relapse has still not occurred”; with bipolar depression (Case 3, after 4 years of amisulpride 50 mg/d), “no relapse”; in the series with bipolar depression (Case 4, after 4 years of amisulpride 150 mg/d), “no relapse”; in the series on bipolar depression (Case 8, amisulpride, after 6 months) it was “no relapse”; in the series on bipolar depression (Case 10, after 7 months of amisulpride), “any relapse has still not occurred”; with bipolar depression (Case 12, after one year of 50 mg amisulpride), “No relapse”. For the same compound, in the series with bipolar depression (Case 13, after two years of 100 mg/d), the relapse entry was “No relapse”. Moreover, the depressive disorder result in the series on bipolar depression (Case 3, bipolar I, most recent episode depressed, amisulpride 100 mg/g, after 3 weeks) is “significant improvement”; with bipolar depression (Case 4, bipolar I, most recent episode mixed, amisulpride 150 mg/g, early course) it was “rapidly improved”; with bipolar depression (Case 4, amisulpride 150 mg/g, after 4 weeks), “disappeared”. Besides, the depressive disorders entry is “improved rapidly” in the series with bipolar depression (Case 6, major depression after divalproate, early course) and “disappear” with bipolar depression (Case 6, after 3 weeks). For the same compound, the anxio-depressive element entry in the series on bipolar depression (Case 7, bipolar I, most recent episode depressed, amisulpride 250 mg/d, after 3 weeks) is listed as “disappears”. For the same compound, the “recurrent manic or depressive episode” value in the series on bipolar depression (Case 7, after 2 years of amisulpride 250 mg/d) is “still not been subject to any recurrent manic or depressive episode”. Also, the “patient's chart” value with bipolar depression (Case 8, after switching from clomipramine to amisulpride 200 mg/d) was “improved”; with bipolar depression (Case 10, amisulpride 300 mg/d, after only one month), “resolved the patient's chart”. Also, in the series on bipolar depression (Case 9, after 3 years, amisulpride 100 mg/d), the “relapse of depressive or manic episodes” value was “no relapse of depressive or manic episodes”. Also, the “manic or depressive relapses” value with bipolar depression (Case 11, after 4 years with amisulpride) is on record as “no manic or depressive relapses”. Also, the clinical course result in the series with bipolar depression (Case 13, bipolar I, most recent episode depressed, amisulpride 100 mg/d) is given as “progressive improvement”. Besides, the catatonic condition entry with bipolar depression (Case 13, amisulpride 100 mg/d, after 6 weeks) is given as “disappearance”. In the series on bipolar depression (Case 14, after 3 years of amisulpride 200 mg/d), the “patient's state” value is on record as “still remains stable”. Further, in the series on bipolar depression (Case 14, paroxetine stopped, lithium controlled, amisulpride 100 mg/d, after 3 weeks), the clinical improvement entry is “considerable improvement”. Besides, the “effect on bipolar depression” value in the series on bipolar depression (amisulpride about 50 mg/day to about 300 mg/day (about 20 to about 800 mg/day)) is recorded as “clinically beneficial effect”.

In the case of `CCCC(CCC)C(=O)O.CCCC(CCC)C(=O)[O-].[Na+]` [divalproate], the manic symptoms entry in the series on bipolar disorder (Case 6, bipolar I, manic state, divalproate 1250 mg/d, after one month) was “disappeared”. The depressive condition result in the series with bipolar depression (Case 11, combination of lithium and divalproate 750 mg/d, lithium increased to obtain 0.9 mEq/L) was “continued”.

In the case of `CCOc1ccccc1OCC1CNCCO1` (stereo not drawn) [viloxazine], the “reactive depressive condition, response” value in the series on bipolar disorder (Case 12, viloxazine during adolescence) is given as “responded only moderately”.

Regarding `[Li]` [lithium, lithium carbonate (Li2CO3)], the lithium serum level in series [2] (Case 5, at admission for bipolar depression) turned out to be 0.8 mEq/L; in series [2] (Case 11, lithium 1200 mg/d and divalproate 750 mg/d, at admission), 0.7 mEq/L. Moreover, the lithium serum levels in series [2] (Case 5, on lithium for about 3 years, stable level) was 0.7-0.9 mEq/L.

Turning to `COc1ccc2c(c1)N(C[C@H](C)CN(C)C)c1ccccc1S2` [levomepromazine], the “manic episode, treatment outcome” value in the series on bipolar disorder was “treated successfully”.

Consider `Fc1ccc([C@@H]2CCNC[C@H]2COc2ccc3c(c2)OCO3)cc1` [paroxetine], for which the “patient's state” value with bipolar disorder (Case 14, bipolar I, combination of lithium 1600 mg/d and paroxetine 40 mg/d) is “stabilised”.

With `NC(=O)N1c2ccccc2C=Cc2ccccc21` [carbamazepine], the therapeutic outcome with bipolar disorder (Case 9, carbamazepine 800 mg/d for 5 years) is given as “treated successfully”. In addition, the “serum level of carbamazepine” value in series [2] (Case 9, carbamazepine 800 mg/d, at admission) was determined as 8000 ng/mL.

Regarding `CNCCC(Oc1ccc(C(F)(F)F)cc1)c1ccccc1` (stereo not drawn) [fluoxetine], the depressive condition result in the series with bipolar depression (Case 9, fluoxetine 20 mg/d, after 3 weeks) was “only a small improvement”.
